Key:
[1] = test system: cyp2b6, cyp3a4, sult2a1 mRNA in PHH; test: RT-qPCR of CAR target genes in primary human hepatocytes; type: cell-based; conditions: two donors, 48 h
Experimental: PHH culture, RNA extraction and gene expression analyses were performed as described previously. Primer sequences for cyp2b6, cyp3a4, sult2a1, and glyceraldehyde-3-phosphate dehydrogenase (gapdh) are shown in Supplementary Table 3.

GAL4-hCAR LBD = target: T1, GAL4-hCAR LBD (Homo sapiens, UniProt Q14994); test: HEK293T GAL4-hCAR dual transfection reporter assay with PK11195 (antagonist displacement); type: cell-based; conditions: read-out: HEK293 GAL4-hCAR EC50
T1 construct: chimeric yeast GAL4 DBD fused to an hCAR LBD; expressed in transfected cells; host or cells: HEK293T (ATCC, CRL-3216)
T1 sequence (Q14994 109-352 limits assumed): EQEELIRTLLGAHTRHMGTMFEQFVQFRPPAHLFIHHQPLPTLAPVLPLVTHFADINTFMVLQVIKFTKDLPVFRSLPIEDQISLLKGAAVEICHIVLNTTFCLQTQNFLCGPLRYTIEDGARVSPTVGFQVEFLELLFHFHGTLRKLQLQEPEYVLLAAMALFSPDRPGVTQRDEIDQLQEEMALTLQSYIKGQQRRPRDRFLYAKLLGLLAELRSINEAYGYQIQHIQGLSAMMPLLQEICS
Description: The GAL4-hCAR, UAS-Luc, pcDNA-GAL4, pGL4-Renilla-Luc and pGEM plasmids were generously provided by Dr. David Mangelsdorf. The GAL4-hCAR plasmid encodes a constitutively expressed chimeric yeast GAL4 DBD fused to an hCAR LBD. The UAS-Luc plasmid encodes a Firefly luciferase reporter under the control of a GAL4 response element. The pcDNA plasmid encodes a constitutively expressed GAL4 DBD and was used as a control vector to determine non-specific luminescence in all HEK293T cellular reporter assays. The pGL4-Renilla-Luc plasmid encodes a constitutively expressed Renilla luciferase reporter and was used as a transfection control in the HEK293T cellular reporter assays.
HEK293T cells (ATCC, CRL-3216) were seeded at a density of 40,000 cells per well in white flat-bottom 96-well microplates (Greiner CellStar, 655073) in Dulbecco’s Modified Eagle Medium (DMEM) (2.5 g/l glucose) supplemented with 10% stripped fetal bovine serum with 100 units/ml of penicillin and incubated for 24 h at 37 °C. Transfection was carried out using 0.3 µL/well of Lipofectamine 2000 (Thermo Fisher Scientific, 11668019). Cells were transfected with 10 ng/well of either pcDNA or GAL4-hCAR, 50 ng/well of UAS-Luc, 5 ng/well of pGL4-Renilla-Luc, and 85 ng/well of pGEM for a total of 150 ng/well of DNA. […] Cells were incubated for 16-hours to allow build-up of luciferase and then processed using the Dual-Glo Luciferase Assay System (Promega, E2940) as per the manufacturer’s instructions. Incubations were performed in four technical replicates.

[2] = test system: mCAR target genes (cyp2b10, cyp3a11, sult2a1) in mouse liver; test: qPCR of mCAR target genes in mouse liver after intraperitoneal treatment; type: in vivo; conditions: for cyp2b10 expression in liver, wild-type mice: 25 mg/kg i.p. once daily for three days; for sult2a1 expression in liver: WT or Nr1i3-/- mice; for cyp3a11 expression in liver: mouse liver, with or without And pre-treatment
Experimental: (§1) 12–15 week-old C57BL/6 J mice were obtained from Jackson Laboratories and were housed on a standard 12 h light/dark cycle. Nr1i3^−/− mice with C57BL/6 J background were obtained from David Moore’s lab (PMID: 11057673) at Baylor College of Medicine, and used at 13–26 weeks of age. Wild-type male, female and Nr1i3^−/− male mice were used in this study, due to known sex-specific CAR activities. Mice were housed in groups of 2–5 mice per cage on a standard 12 h light/dark cycle and fed with rodent chow diet (Inotiv, Teklad rodent diet 2918). Temperature was maintained at 21 °C with a range of 21–24 °C and humidity at 16–51%. National Institute of Health guidelines for the care and use of laboratory animals were followed with all experiments performed as directed by the Institutional Animal Care and Use Committee at the University of Illinois, Urbana-Champaign (UIUC, IACUC protocol: 22183). Mice were acclimatized to the UIUC mouse facility for 2 weeks prior to experiments. DIM and DIE were dissolved in 5% DMSO in corn oil and injected intraperitoneally at 25 mg/kg once daily for three days. After 4 h of the third injection, mice were sacrificed to collect serum, livers and intestines. TCPOBOP was dissolved in corn oil and injected intraperitoneally at 3 mg/kg once and the livers collected after 3 days for further studies. When used to block CAR activity, 100 mg/kg androstenol was injected intraperitoneally 15 min prior to the first DIM or DIE treatment. RNA from mice livers was isolated using TRIzol (Invitrogen) reagent using the manufacturer’s instructions. 3–5 µg of RNA was used to synthesize cDNA with random primers (NEBioLabs) and Maxima Reverse Transcriptase kits (Thermo Fisher Scientific). cDNA was further diluted, and 50 ng was used for SYBR green (Thermo Fisher Scientific) based qRT-PCR. Relative gene expression was calculated by the delta Ct method and normalized to 36b4 levels as loading controls. qPCR primers for gene expression analysis are listed in Supplementary Table 3.

[3] = Diindole levels in tissues of WT and Nr1i3-/- mice; type: in vivo
Experimental: as §1, with “TCPOBOP was dissolved in corn oil and injected intraperitoneally at 3 mg/kg once and the livers collected after 3 days for further studies. When used to block CAR activity, 100 mg/kg androstenol was injected intraperitoneally 15 min prior to the first DIM or DIE treatment. RNA from mice livers was isolated using TRIzol (Invitrogen) reagent using the manufacturer’s instructions. 3–5 µg of RNA was used to synthesize cDNA with random primers (NEBioLabs) and Maxima Reverse Transcriptase kits (Thermo Fisher Scientific). cDNA was further diluted, and 50 ng was used for SYBR green (Thermo Fisher Scientific) based qRT-PCR.” left out

hCAR1+A = target: T2, hCAR1+A (Homo sapiens, UniProt Q14994, INS274A); test: HepG2 CYP2B6-2.2 kb reporter with hCAR1+A; type: cell-based; conditions: 1, 5 and 10 µM, 24 h
T2 construct: expressed in transfected cells; host or cells: HepG2 (ATCC, HB-8065)
Description: Activities of both firefly and renilla luciferases were detected using a Dual-Luciferase Kit (Promega).

GST-hCAR-LBD = target: T3, GST-hCAR-LBD (Homo sapiens, UniProt Q14994); test: LanthaScreen TR-FRET PGC1α coactivator recruitment assay; type: biochemical
T3 construct: GST-hCAR-LBD (5 nM), terbium-labeled anti-GST antibody (5 nM); purchased Invitrogen A15141
T3 sequence (Q14994 109-352 limits assumed): T1 sequence (Q14994 109-352 limits assumed)
Experimental: LanthaScreen^TM TR-FRET hCAR coactivator assays were performed according to manufacturer’s instructions (Invitrogen, A15141). Test compounds were incubated for 2 h at room temperature with GST-hCAR-LBD (5 nM), terbium-labeled anti-GST antibody (5 nM), and Fluorescein-PGC1α coactivator peptide (125 nM). Incubations were performed in four technical replicates. TR-FRET emissions were measured using a Tecan Infinite F200 Fluorescence Microplate Reader. Results were expressed as the ratio of fluorescence intensity at 520 nm (fluorescein emission excited by terbium emissions) and 495 nm (terbium emissions).

T2 sequence (Q14994 with tags, fused parts or gaps isoform Q14994-2 INS270A): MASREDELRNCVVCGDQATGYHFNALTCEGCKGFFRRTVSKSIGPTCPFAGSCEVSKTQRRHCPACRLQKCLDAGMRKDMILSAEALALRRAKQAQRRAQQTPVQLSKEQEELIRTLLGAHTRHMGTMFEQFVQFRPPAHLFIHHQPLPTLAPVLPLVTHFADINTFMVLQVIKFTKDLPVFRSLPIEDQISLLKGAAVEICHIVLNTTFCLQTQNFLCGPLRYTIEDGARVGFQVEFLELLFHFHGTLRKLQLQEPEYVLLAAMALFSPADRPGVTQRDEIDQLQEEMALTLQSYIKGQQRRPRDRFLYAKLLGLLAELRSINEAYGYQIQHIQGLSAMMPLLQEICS
T2 sequence (P19793 whole entry partner): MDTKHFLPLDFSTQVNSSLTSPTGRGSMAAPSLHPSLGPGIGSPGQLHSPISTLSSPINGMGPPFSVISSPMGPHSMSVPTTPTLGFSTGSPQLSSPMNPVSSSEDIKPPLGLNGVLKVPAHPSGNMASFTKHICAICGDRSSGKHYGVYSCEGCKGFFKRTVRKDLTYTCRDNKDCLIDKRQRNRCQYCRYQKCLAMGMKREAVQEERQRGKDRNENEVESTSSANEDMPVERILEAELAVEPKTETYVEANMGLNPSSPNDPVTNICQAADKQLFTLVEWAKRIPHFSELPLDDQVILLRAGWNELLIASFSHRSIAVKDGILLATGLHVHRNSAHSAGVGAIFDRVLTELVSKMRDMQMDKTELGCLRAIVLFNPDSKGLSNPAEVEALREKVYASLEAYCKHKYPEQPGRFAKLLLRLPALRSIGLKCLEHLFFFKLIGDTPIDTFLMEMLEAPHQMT

SMILES	cyp2b6 mRNA expression [1]	cyp3a4 mRNA expression (joint CAR/PXR target gene) [1]	sult2a1 mRNA expression (non-target gene) [1]	EC50 (GAL4-hCAR LBD)	cyp2b10 expression in liver, wild-type mice [2]	sult2a1 expression in liver [2]	cyp3a11 expression in liver [2]	compound levels in tissues of Nr1i3-/- versus WT mice ([3]; mouse, in vivo)	hCAR1+A activity (CYP2B6 reporter) (hCAR1+A)	compound levels in tissues of Nr1i3-/- versus WT mice ([3]; duodenum, jejunum, ileum, liver, male mice treated with diindoles)	PGC1α cofactor recruitment (GST-hCAR-LBD)
c1ccc2c(Cc3c[nH]c4ccccc34)c[nH]c2c1 [DIM, diindolylmethane]	selectively upregulated	more variable	no effects	1740 nM	robustly induced	did not show significant responses	did not affect	increased dramatically	significantly boost hCAR1+A activity	–	–
CC(c1c[nH]c2ccccc12)c1c[nH]c2ccccc12 [DIE, 3,3’-diindolylethane]	selectively upregulated	more variable	no effects	720 nM	robustly induced	did not show significant responses	did not affect	–	significantly boost hCAR1+A activity	increased dramatically	does not

— paper PMC10960024, “Diindoles produced from commensal microbiota metabolites function as endogenous CAR/Nr1i3 ligands” (Nature Communications, 2024)
